Results published in patent publication US20240182382A1, “ALIPHATIC 18F-RADIOLABELING OF A TETRAZINE PRECURSOR” (UNIVERSITY OF COPENHAGEN, priority 2021, published 2024).

Tests used:
[1] = system: CC49-TCO; assay: Ex vivo blocking assay: blocking of [111In]Tz-Tg binding to CC49-TCO in LS174T tumor xenografts; parameters: species or system nude BALB/c mice; conditions: for Normalized Tumor blocking effect: change in tumor uptake of [111In]Tz-Tg 22 h p.i., Tz administered 1 h prior, normalized to non-blocked control, mean from n = 3 mice/group
Description: FIG. 3 show a schematic display of the blocking assay. The blocking effect of non-radiolabeled Tz was determined as the change in tumor uptake of [111 1n]Tz-Tg 22 h p.i. Each Tz was administered 1 h prior to [111 1n]Tz-Tg and the uptake normalized to a group of animals were no blocking was performed (control).
The inventors have recently developed a blocking assay that allows to assess the in vivo ligation performance of unlabeled tetrazine derivatives. This assay omits time-consuming development of radiolabeled tetrazines for every ligand to be tested. In this assay, binding of [^111In]Tz-Tg (see structure in example 7), a literature described pretargeted imaging agent, is blocked in vivo to the pretargeting vector CC49-TCO (described in Stéen, J.; Jørgensen, J. T.; Christoph, D.; Battisti, U. M.; Nørregaard, K.; Edem, P.; Bratteby, K.; Shalgunov, V.; Martin, W.; Svatunek, D.; Poulie, C. B. M.; Hvass, L.; Simon, M.; Thomas, W.; Rossin, R.; Robillard, M.; Kristensen, J. L.; Mikula, H.; Kjaer, A.; Herth, M. Lipophilicity and Click Reactivity Determine the Performance of Bioorthogonal Tetrazine Tools in Pretargeted in Vivo Chemistry; 2020 Dec. 24, 2020.), which was administered 72 h prior. The blocking effect of the unlabeled tetrazine derivatives is afterwards quantified via an ex vivo biodistribution study and normalized to the binding of [^111In]Tz-Tg determined without any blocking.
All animal studies were approved by the Danish Animal Welfare Council, ministry of Justice. Five weeks old female nude BALB/c mice (Charles River, Sulzfeld, Germany) were allowed to acclimatize for one week with access to water and chow ad libitum. Human colon cancer cell line (LS174T; obtained from ATCC) was cultured in minimum essential medium (MEM) supplemented with 10% fetal bovine serum, 1% L-glutamine, 1% sodium pyruvate, 1% non-essential amino acids, and 1% penicillin-streptomycin at 37° C. and 5% CO2. Cells were harvested by trypsinization at a confluence of 70-90% and subcutaneous tumors were established in the left flank of the 6 weeks old animals by inoculation of 5×10^6 LS174T cells resuspended in sterile PBS (100 μL) and allowed to grow for 7-10 days. Tumors were measured using a caliper and the volume calculated using the formula volume=1/2 (length×width 2).
Tumor-bearing animals were matched in groups based on their tumor volume (tumor volumes of ˜100-300 mm^3, n=3 in each group) and were administered 100 μg/100 μL of CC49-TCO (100 μg/100 μL, ˜7 TCO/mAb) per mouse. After 3 days, animals were injected with non-radioactive Tz (10-20 nmol). After 1 h, they were administered with IniTz-Tg (˜13 MBq/100 μL, 1-2 nmol) via the tail vein. [^111In]Tz-Tg was obtained and radiolabeled as previously described in Borjesson, P. K.; Jauw, Y. W.; de Bree, R.; Roos, J. C.; Castelijns, J. A.; Leemans, C. R.; van Dongen, G. A.; Boellaard, R. Radiation dosimetry of 89 Zr-labeled chimeric monoclonal antibody U36 as used for immuno-PET in head and neck cancer patients. J Nucl Med 2009, 50, 1828-36. The mice were euthanized after 22 h and tumor, blood, heart, lung, liver, spleen, kidney, and muscle were resected. All tissues were weighted, and the radioactivity measured in a gamma counter (Wizard2, Perkin Elmer) and data was corrected for decay, tissue weight and injected amount of radioactivity. FIG. 3 illustrate the workflow of the blocking assay.

[2] = Bench stability by analytical HPLC; type: physicochemical
Description: The stability of [^18F]13 and it precursor (28) was investigated by analytical HPLC. [^18F]13 was stable for at least 4 hours and therefore, sufficient for most applications (FIG. 5A). […] The process could be prevented storing the precursor (28) at −20° C. as a solid—at least for 3 months (FIG. 5B).

[3] = Reaction kinetics of tetrazines with TCO (stopped-flow, pseudo-first-order); type: physicochemical; conditions: Second order rate constants with TCO at 37° C. in PBS
Description: Reaction kinetics of tetrazines with standard TCO were determined using pseudo-first-order measurements with an excess of the TCO compound in PBS (pH=7.4) at 37.0±0.1° C. following the decrease of tetrazine absorbance at 535 nm. Measurements were performed in triplicates using an SX20 stopped-flow photometer (Applied Photophysics, UK) equipped with a 535 nm LED light source. Data analysis was performed using Prism 6 (Graphpad) to determine the observed rate constants which were converted into secondorder rate constants through dividing by the TCO concentration.
Second-order rate constants for the reaction with TCO in PBS at 37° C. were determined by pseudo-first order measurements in a SX20 stopped flow photometer (Applied Photophysics).

[4] = system: CC49-TCO; assay: Pretargeted PET/CT imaging in LS174T tumor xenograft bearing mice; type: in vivo, Balb/c nude mice; conditions: for tumor-to-blood (T/B) ratio: 1 h; for tumor uptake: mice pretreated with CC49-TCO 72 h prior; for tumor-to-muscle ratio in comparison: compared to [64Cu]Cu-NOTA-PEG7-H-Tz, [111In]Tz-Tg and ZZ; for tumor-to-muscle (T/M) ratio: image derived, 1 h p.i., animals pretargeted with CC49-TCO; for pharmacokinetics: pretargeted experiments in mice
Description: The ability of [^18F]13 and [^18F]14 to be used as a pretargeting imaging agents was evaluated using a similar pretargeted setup that was used for the ex vivo blocking study in example 7. Mice were administered with CC49-TCO 72 h prior to administration of [^18F]13 or [^18F]14 where after PET/CT scanning was performed 1 h later. Control animals were injected with unconjugated mAb CC49 instead of CC49-TCO, but were otherwise treated exactly the same. After PET/CT scanning, animals were euthanized and an ex vivo biodistribution performed.
A) Pretargeted imaging of [^18F]13: Pretargeted imaging of [^18F]13 as tested in vivo using the TAG-72 targeting antibody CC49 in human colorectal cancer xenograft tumors LS174T. Tumors were established in 7-8 week old Balb/c nude mice and after one week, the animals were injected i.v. with either 50 ug […] TCO-modified CC49 (CC49-TCO, ˜7 TCO/mAb), or non-modified CC49 (control) (n=4 per group). 72 hours later, ^18F-13 (1.74±0.319 (mean±SD) MBq/100 μL (55.3 GBq/μmol) were injected i.v., followed by PET/CT-scan (Inveon®, Siemens Medical Solutions), one hour post injection. PET data was acquired in an energy window of 350-650 KeV and a time resolution of 6 ns followed by a CT scan (360 projections, 65 kV, 500 pA and 400 ms). PET and CT images were aligned by rigid affine registration, after which 3D regions of interest (ROI) were created on the full CT tumor volume, as well as heart and muscle tissue to quantify uptake of [^18F]13 (FIG. 6). Additionally, selected organs were harvested for ex vivo biodistribution. The radioactivity in the tissues were determined using a gamma counter (Wizard 2 , Perkin Elmer). Data was corrected for decay, tissue weight and the injected dose of radioactivity. GraphPad Prism 9 (GraphPad Software) was used for statistical analyses and plotting data. Statistical difference between mean % ID/g values were analyzed using Welch's T-test. Results were considered significant when p<0.05.
B) Pretargeted imaging of [^18]14: LS174T xenografts were established in mice as previously described. When tumors reached a size of ˜100 mm3 animals were matched based on their tumor volume and divided into two groups (tumor volumes of, n=5/group), and injected iv with 50 μg in 100 μL of either CC49-TCO or CC49. After 72 h the animals were administered iv with [^18F ]14(4.74±1.39 MBq in 100 μL) and PET/CT (Inveon, Siemens Medical Solutions, USA) scanned 1 h later, using a PET acquisition time of 5 min, an energy window of 350-650 KeV and a time resolution of 6 ns;
followed by a continuous 360 projections/360° CT scan, acquired with a x-ray tube voltage of 65 kV, a tube anode current of 500 pA and an exposure time per projection of 400 ms (FIG. 8). Mice were anaesthetized breathing 3% sevoflurane (5% for induction) mixed in 35% O2 in N2 and during scans the body temperature of the mice was kept stable using a heating pad.
Signograms from PET scans were reconstructed using a 3-dimensional maximum a posteriori algorithm with correction for scatter and attenuation. The mean percentage of injected dose per grams (% ID/g) was determined by manually creating regions of interest (ROI) on co-registered PET/CT images (Inveon Research Workplace software, Siemens Medical Solutions, USA).

[5] = Tetrazine core reactivity test with TCO-PNP; type: physicochemical; conditions: for tetrazine core after radiolabeling: analytical chromatogram before and after TCO-PNP addition
Description: • a) The reaction between [^18F]13 TCO-PNP was performed by mixing the formulated [^18F]13 (200 μL) with 5 μL of the commercially available TCO-PNP ester dissolved in DMF (5 mg/mL) in an analytical HPLC vial. The solution was gently shaken and left for 1 min before it was injected on the analytical HPLC for analysis. • b) The reaction between [^18F]14 and TCO-PNB was performed by mixing the formulated [^18F]14 (200 μL) with 5 μL of the commercially available TCO-PNB ester dissolved in DMF (5 mg/mL) in an analytical HPLC vial. The solution was gently shaken and left for 1 min before it was injected on the analytical HPLC for analysis.

Q: With `O=C(O)C(F)(F)F.O=C(O)CN(CCF)Cc1cc(F)cc(-c2nncnn2)c1` [Compound 9, N-(carboxymethyl)-2-fluoro-N-(3-fluoro-5-(1,2,4,5-tetrazin-3-yl)benzyl)ethanaminium 2,2,2-trifluoroacetate] as the molecule, how does the “Normalized Tumor blocking effect” value [1] read?
A: Its value is 76.

Q: For `O=C(O)C(F)(F)F.O=C(O)CN(CCF)Cc1cccc(-c2nncnn2)c1` [Compound 10, N-(3-(1,2,4,5-tetrazin-3-yl)benzyl)-N-(carboxymethyl)-2-fluoroethanaminium 2,2,2-trifluoroacetate], which “Normalized Tumor blocking effect” value [1] is on record?
A: Its value is 75.

Q: With `O=C(O)C(F)(F)F.O=C(O)CN(CCF)Cc1ccc(-c2nncnn2)cc1F` [Compound 11, N-(carboxymethyl)-2-fluoro-N-(2-fluoro-4-(1,2,4,5-tetrazin-3-yl)benzyl)ethanaminium 2,2,2-trifluoroacetate] as the molecule, how does the “Normalized Tumor blocking effect” value [1] read?
A: The value was 69.

Q: Which “Normalized Tumor blocking effect” value [1] does the source give for `O=C(O)C(F)(F)F.O=C(O)CN(CCF)Cc1ccc(-c2nncnn2)cc1` [Compound 12, N-(4-(1,2,4,5-tetrazin-3-yl)benzyl)-N-(carboxymethyl)-2-fluoroethanaminium 2,2,2-trifluoroacetate] here?
A: Its value is 69.

Q: With `O=C(O)C(F)(F)F.O=C(O)CN(CC(=O)O)Cc1ccc(-c2nncnn2)cc1OCCF` [Compound 13, 1-Carboxy-N-(carboxymethyl)-N-(2-(2-fluoroethoxy)-4-(1,2,4,5-tetrazin-3-yl)benzyl) methanaminium 2,2,2-trifluoroacetate] as the molecule, how does the “Normalized Tumor blocking effect” value [1] read?
A: Its value is 98.

Q: What does the source list for `O=C(O)C(F)(F)F.O=C(O)CN(CC(=O)O)Cc1ccc(-c2nnc(-c3ccc(OCCF)cn3)nn2)nc1` [Compound 14, 1-Carboxy-N-(carboxymethyl)-N-((6-(6-(5-(2-fluoroethoxy)pyridin-2-yl)-1,2,4,5-tetrazin-3-yl)pyridin-3-yl)methyl)methanaminium 2,2,2-trifluoroacetate]?
A: blocking effect ([1]; blocking of [111In]Tz-Tg binding to CC49-TCO in vivo): 99%; Normalized Tumor blocking effect [1]: 99

Q: For `CC(C)(C)OC(=O)CN(CC(=O)OC(C)(C)C)Cc1ccc(-c2nncnn2)cc1OCCOS(=O)(=O)c1ccc([N+](=O)[O-])cc1` [Compound 28, Di-tert-butyl 2,2′-((2-(2-(((4-nitrophenyl)sulfonyl)oxy)ethoxy)-4-(1,2,4,5-tetrazin-3-yl)benzyl)azanediyl)diacetate], which stability of precursor ([2]; analytical HPLC) is on record?
A: The stability of precursor was “decomposed over time”.

Q: What about the time stable ([2]; dissolved (25 mg/mL) in DMSO and frozen at −20° C.) of the same molecule?
A: The time stable was “at least 3 months”.

Q: And the time stable ([2]; stored at −20° C. as a solid)?
A: Its time stable is ≥ 3 months.

Q: Which results are given for `O=C(O)CN(CC(=O)O)Cc1ccc(-c2nnc(-c3ccc(OCCF)cn3)nn2)nc1` [Tz-Tg, reference compound]?
A: Rate constant [3]: 73742 M⁻¹ s⁻¹; Normalized Tumor blocking effect [1]: 99

Q: Which “tumor-to-blood (T/B) ratio” value [4] does the source give for `O=C(O)CN(CC(=O)O)Cc1ccc(-c2nncnn2)cc1OCC[18F]` [[^18F]13] here?
A: The value was 1.2.

Q: What about the “Uptake in tissues beside tumor and blood” value ([4]; PET/CT 1 h p.i.) of the same molecule?
A: Its value is “low”.

Q: What about the “tumor uptake, control” value ([4]; PET/CT 1 h p.i., control mice injected with unconjugated CC49 72 h prior, mean±S.E.M) of the same molecule?
A: The value was 0.01±0.01 % ID/g.

Q: And the tumor uptake ([4]; PET/CT 1 h p.i., mean±S.E.M)?
A: The tumor uptake was 1.87±0.31 % ID/g.

Q: What about the “tumor-to-muscle ratio in comparison” value [4] of the same molecule?
A: Its value is “highest”.

Q: What about the “tumor-to-muscle (T/M) ratio” value [4] of the same molecule?
A: The value was 20.1.

Q: And the pharmacokinetics [4]?
A: The pharmacokinetics was “favorable”.

Q: And the “Stability at r.t. over 4 hours” value ([2]; after 4 hours at r.t.)?
A: Its value is “no signs of decomposition”.

Q: And the time stable ([2]; formulated tracer at r.t., analytical HPLC)?
A: Its time stable is “at least 4 hours”.

Q: What about the “ability to react with TCO-PNP” value ([5]; after 4 hours at r.t.) of the same molecule?
A: The value was “quantitatively”.

Q: What about the “tetrazine core after radiolabeling” value [5] of the same molecule?
A: The value was “intact”.

Q: For `O=C(O)CN(CC(=O)O)Cc1ccc(-c2nnc(-c3ccc(OCC[18F])cn3)nn2)nc1` [[^18F]14], which “tumor-to-blood (T/B) ratio” value [4] is on record?
A: The value was 0.8.

Q: What about the “Uptake in muscle tissue” value ([4]; PET/CT 1 h p.i.) of the same molecule?
A: The value was “generally low”.

Q: And the “uptake in blood (heart used as a surrogate)” value ([4]; PET/CT 1 h p.i., CC49-TCO group)?
A: The value was “high”.

Q: And the tumor uptake ([4]; PET/CT 1 h p.i., mean±S.E.M)?
A: The tumor uptake was 1.8±0.3 % ID/g.

Q: And the “tumor-to-muscle ratio in comparison” value [4]?
A: Its value is “highest”.

Q: And the “tumor-to-muscle (T/M) ratio” value [4]?
A: Its value is 9.0.

Q: What about the pharmacokinetics [4] of the same molecule?
A: Its pharmacokinetics is “favorable”.

Q: And the “tetrazine core after radiolabeling” value [5]?
A: The value was “intact”.
